In PubChem BioAssay (NCI):
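Tested at 5 concentrations; 48 h exposure; 96-well plates; endpoints linearly interpolated, else capped at highest concentration. The concentration for full growth arrest is given as TGI.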

Tests used:
Test in all cases: NCI-60 cell line screen, 48 h
[1] = test system: 786-0 renal
[2] = test system: A498 renal
[3] = test system: A549 NSCLC
[4] = test system: ACHN renal
[5] = test system: CAKI-1 renal
[6] = test system: COLO 205 colon
[7] = test system: DU-145 prostate
[8] = test system: EKVX NSCLC
[9] = test system: HCC-2998 colon
[10] = test system: HCT-116 colon
[11] = test system: HCT-15 colon
[12] = test system: HL-60(TB) leukemia
[13] = test system: HOP-62 NSCLC
[14] = test system: HOP-92 NSCLC
[15] = test system: HS 578T breast
[16] = test system: HT29 colon
[17] = test system: IGROV1 ovarian
[18] = test system: K-562 leukemia
[19] = test system: KM12 colon
[20] = test system: LOX IMVI melanoma
[21] = test system: M14 melanoma
[22] = test system: MALME-3M melanoma
[23] = test system: MCF7 breast
[24] = test system: MDA-MB-435
[25] = test system: MDA-N
[26] = test system: NCI-H226 lung
[27] = test system: NCI-H23 lung
[28] = test system: NCI-H460 lung
[29] = test system: NCI-H522 lung
[30] = test system: NCI/ADR-RES ovarian
[31] = test system: OVCAR-3 ovarian
[32] = test system: OVCAR-4 ovarian
[33] = test system: OVCAR-5 ovarian
[34] = test system: OVCAR-8 ovarian
[35] = test system: PC-3 prostate
[36] = test system: SF-268 CNS
[37] = test system: SF-295 CNS
[38] = test system: SF-539 CNS
[39] = test system: SK-MEL-2 melanoma
[40] = test system: SK-MEL-28 melanoma
[41] = test system: SK-MEL-5 melanoma
[42] = test system: SK-OV-3 ovarian
[43] = test system: SN12C renal
[44] = test system: SNB-19 CNS
[45] = test system: SNB-75 CNS
[46] = test system: SR leukemia
[47] = test system: SW-620 colon
[48] = test system: T-47D breast
[49] = test system: TK-10 renal
[50] = test system: U251 CNS
[51] = test system: UACC-257 melanoma
[52] = test system: UACC-62 melanoma
[53] = test system: CCRF-CEM leukemia
[54] = test system: MDA-MB-231 breast
[55] = test system: MOLT-4 leukemia
[56] = test system: RPMI-8226 leukemia
[57] = test system: RXF 393 renal
[58] = test system: UO-31 renal

Structure (SMILES): CC(C)=C=CC(C)(C)NS(=O)(=O)NC(C)(C)C=C=C(C)C
- TGI [1]: > 100 µM
- TGI [2]: > 100 µM
- TGI [3]: > 100 µM
- TGI [4]: > 100 µM
- TGI [5]: > 100 µM
- TGI [6]: > 100 µM
- TGI [7]: > 100 µM
- TGI [8]: > 100 µM
- TGI [9]: > 100 µM
- TGI [10]: > 100 µM
- TGI [11]: > 100 µM
- TGI [12]: > 100 µM
- TGI [13]: > 100 µM
- TGI [14]: > 100 µM
- TGI [15]: > 100 µM
- TGI [16]: > 100 µM
- TGI [17]: > 100 µM
- TGI [18]: > 100 µM
- TGI [19]: > 100 µM
- TGI [20]: > 100 µM
- TGI [21]: > 100 µM
- TGI [22]: > 100 µM
- TGI [23]: > 100 µM
- TGI [24]: > 100 µM
- TGI [25]: > 100 µM
- TGI [26]: > 100 µM
- TGI [27]: > 100 µM
- TGI [28]: > 100 µM
- TGI [29]: > 100 µM
- TGI [30]: > 100 µM
- TGI [31]: > 100 µM
- TGI [32]: > 100 µM
- TGI [33]: > 100 µM
- TGI [34]: > 100 µM
- TGI [35]: > 100 µM
- TGI [36]: > 100 µM
- TGI [37]: > 100 µM
- TGI [38]: > 100 µM
- TGI [39]: > 100 µM
- TGI [40]: > 100 µM
- TGI [41]: > 100 µM
- TGI [42]: > 100 µM
- TGI [43]: > 100 µM
- TGI [44]: > 100 µM
- TGI [45]: > 100 µM
- TGI [46]: > 100 µM
- TGI [47]: > 100 µM
- TGI [48]: > 100 µM
- TGI [49]: > 100 µM
- TGI [50]: > 100 µM
- TGI [51]: > 100 µM
- TGI [52]: > 100 µM

Structure (SMILES): CC(=O)OC[C@]12CCC3[C@@]4(C)CCCC(C)(C)C4CC[C@@]3(C)C1CC(C1=CC(=O)OC1O)O2 (some centres undefined)
- TGI [1]: 1.83 µM
- TGI [3]: 5.05 µM
- TGI [5]: 3.11 µM
- TGI [53]: 0.982 µM
- TGI [6]: 5.67 µM
- TGI [8]: 6.51 µM
- TGI [9]: 2.83 µM
- TGI [11]: 1.98 µM
- TGI [12]: 2.66 µM
- TGI [13]: 3.9 µM
- TGI [17]: 2.95 µM
- TGI [18]: 9.56 µM
- TGI [19]: 3.62 µM
- TGI [21]: 3.07 µM
- TGI [23]: 2.97 µM
- TGI [54]: 3.12 µM
- TGI [25]: 2.42 µM
- TGI [55]: 0.633 µM
- TGI [27]: 3.8 µM
- TGI [34]: 3.52 µM
- TGI [35]: 2.68 µM
- TGI [56]: 0.761 µM
- TGI [57]: 1.55 µM
- TGI [36]: 4.88 µM
- TGI [40]: 2.19 µM
- TGI [41]: 2.85 µM
- TGI [42]: 4.04 µM
- TGI [45]: 3.91 µM
- TGI [46]: 0.868 µM
- TGI [47]: 1.85 µM
- TGI [48]: 3.79 µM
- TGI [49]: 3.2 µM
- TGI [52]: 3.65 µM

Structure (SMILES): CC(=O)O[C@@H]1CN(S(=O)(=O)c2ccc(C)cc2)C[C@@H]1C1CCCCC1
- TGI [2]: 55.1 µM
- TGI [4]: > 100 µM
- TGI [5]: 45.6 µM
- TGI [53]: > 100 µM
- TGI [6]: 46.5 µM
- TGI [7]: > 100 µM
- TGI [8]: 58.6 µM
- TGI [9]: > 100 µM
- TGI [11]: > 100 µM
- TGI [13]: 66.7 µM
- TGI [14]: 33.8 µM
- TGI [15]: 23.7 µM
- TGI [16]: 74 µM
- TGI [17]: 38.6 µM
- TGI [18]: > 100 µM
- TGI [19]: 29.8 µM
- TGI [20]: 64 µM
- TGI [21]: 29.3 µM
- TGI [23]: 42.1 µM
- TGI [24]: 44.6 µM
- TGI [25]: 54.7 µM
- TGI [55]: 65.3 µM
- TGI [26]: 34.6 µM
- TGI [27]: > 100 µM
- TGI [28]: > 100 µM
- TGI [30]: 53.3 µM
- TGI [31]: 28.2 µM
- TGI [32]: > 100 µM
- TGI [33]: > 100 µM
- TGI [34]: 69.6 µM
- TGI [35]: 46.4 µM
- TGI [56]: 67.7 µM
- TGI [36]: 52.5 µM
- TGI [37]: > 100 µM
- TGI [38]: 0.609 µM
- TGI [39]: 32.2 µM
- TGI [40]: 34.3 µM
- TGI [41]: 45.8 µM
- TGI [42]: > 100 µM
- TGI [44]: > 100 µM
- TGI [45]: 44.4 µM
- TGI [46]: > 100 µM
- TGI [47]: 41.3 µM
- TGI [48]: > 100 µM
- TGI [49]: 41.4 µM
- TGI [50]: 37.2 µM
- TGI [51]: 35.7 µM
- TGI [52]: 33.4 µM
- TGI [58]: > 100 µM
